# Source: paper PMC7414129, “Visualizing the enzyme mechanism of mevalonate diphosphate decarboxylase” (Nature Communications, 2020)
# T1: MDDEF (mevalonate diphosphate decarboxylase from Enterococcus faecalis) (Enterococcus faecalis, UniProt Q9FD68)
# T1 construct: gene mvaD; full-length, recombinant in E. coli BL21(DE3); N-terminal His tag removed by TEV protease (told for K187A, wild type purified similarly); residues 1-326 modelled
# T1 sequence (Q9FD68 1-331): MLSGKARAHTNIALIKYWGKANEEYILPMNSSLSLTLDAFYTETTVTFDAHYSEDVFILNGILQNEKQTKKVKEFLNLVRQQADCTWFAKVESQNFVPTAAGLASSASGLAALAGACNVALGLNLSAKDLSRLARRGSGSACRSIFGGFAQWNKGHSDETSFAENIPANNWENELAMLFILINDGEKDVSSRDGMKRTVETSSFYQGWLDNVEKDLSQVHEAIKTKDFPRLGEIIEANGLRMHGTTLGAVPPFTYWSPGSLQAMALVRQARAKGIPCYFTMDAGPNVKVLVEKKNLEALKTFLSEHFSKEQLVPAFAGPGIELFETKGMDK
# Key:
# [1] = molecular target: T1, MDDEF (mevalonate diphosphate decarboxylase from Enterococcus faecalis); assay: X-ray crystal structure (soaked); type: binding; conditions: 1.7 Å; binary complex; pH 4.6
# [2] = molecular target: T2, MDDEF (mevalonate diphosphate decarboxylase from Enterococcus faecalis) (Enterococcus faecalis, UniProt Q9FD68, K187A); assay: biochemical
# T2 construct: gene mvaD
# [3] = substrate: C[C@@](O)(CCOP(=O)(O)OP(=O)(O)O)CC(=O)O; assay: purified protein; conditions: cobalt substituting for magnesium, co-substrate ATP, 100 mM HEPES pH 7.0, 100 mM KCl, 30 °C (standard assay)
# [4] = substrate: Nc1ncnc2c1ncn2[C@@H]1O[C@H](COP(=O)(O)OP(=O)(O)OP(=O)(O)O)[C@@H](O)[C@H]1O; assay: purified protein; conditions: cobalt substituting for magnesium, co-substrate MVAPP, 100 mM HEPES pH 7.0, 100 mM KCl, 30 °C (standard assay)
molecule,measurement,setting,value
"C[C@@](O)(CCOP(=O)(O)OP(=O)(O)O)CC(=O)O [MVAPP, mevalonate-5-diphosphate]",X-ray crystal structure (soaked),[1],MDDEF-MVAPP: 6E2T
Nc1ncnc2c1ncn2[C@@H]1O[C@H](CO[P@](=O)(O)O[P@](=O)(O)O[P@@](=O)(O)S)[C@@H](O)[C@H]1O [ATPγS],Kd,[2],182 ± 36 µM
MDDEF (mevalonate diphosphate decarboxylase from Enterococcus faecalis) (Enterococcus faecalis) (protein) MLSGKARAHTNIALIKYWGKANEEYILPMNSSLSLTLDAFYTETTVTFDAHYSEDVFILNGILQNEKQTKKVKEFLNLVRQQADCTWFAKVESQNFVPTAAGLASSASGLAALAGACNVALGLNLSAKDLSRLARRGSGSACRSIFGGFAQWNKGHSDETSFAENIPANNWENELAMLFILINDGEKDVSSRDGMKRTVETSSFYQGWLDNVEKDLSQVHEAIKTKDFPRLGEIIEANGLRMHGTTLGAVPPFTYWSPGSLQAMALVRQARAKGIPCYFTMDAGPNVKVLVEKKNLEALKTFLSEHFSKEQLVPAFAGPGIELFETKGMDK,Km,[3],39.3 ± 4.0 µM
same,Km,[4],188 ± 13 µM
